Reference: patent publication US20220170028A1, “NOVEL INTERLEUKIN-2 VARIANTS AND BIFUNCTIONAL FUSION MOLECULES THEREOF” (Cugene Inc, priority 2019, published 2022)

Tests used:
[1] = Aggregate content by size-exclusion chromatography after Protein A purification; type: physicochemical; conditions: Isoleucine-125 constructs; after MabSelectSure
Procedure: For affinity chromatography each supernatant was loaded on a HiTrap MabSelectSure column (CV=5 mL, GE Healthcare) equilibrated with 25 ml phosphate buffered saline, pH 7.2 (ThermoFisher). Unbound protein was removed by washing with 5 column volumes PBS, pH 7.2 and target protein was eluted with 25 mM sodium citrate, 25 mM sodium chloride, pH 3.2. Protein solution was neutralized by adding 3% of 1 M Tris pH 10.2. Ion exchange chromatography or mix-mode chromatography, including but not limited to CaptoMMC (GE Healthcare), ceramic hydroxyapatite, or ceramic fluoroapatite (Bio-Rad) was also utilized to polish the Protein A material as needed. Target protein was concentrated with an Amicon®Ultra-15 concentrator 10 KDa NMWC (Merck Millipore Ltd.)
The purity and molecular weight of the purified constructs were analyzed by SDS-PAGE with and in the absence of a reducing agent and staining with Coomassie (Imperial® Stain). The NuPAGE® Pre-Cast gel system (4-12% or 8-16% Bis-Tris, ThermoFisher) was used according to the manufacturer's instructions. The protein concentration of purified protein samples was determined by measuring the UV absorbance at 280 nm (Nanodrop Spectrophotometer, ThermoFisher) divided by the molar extinction coefficient calculated on the basis of the amino acid sequence. The aggregate content of the constructs was analyzed on an Agilent 1200 high-performance liquid chromatography (HPLC) system. Samples were injected onto an AdvanceBio size-exclusion column (300 Å, 4.6×150 mm, 2.7 μm, LC column, Agilent) using 150 mM sodium phosphate, pH 7.0 as the mobile phase at 25° C.
S125I substitution was thus introduced into a number of IL-2 variant Fc fusion molecules. The constructs harboring Ile-125 substitution in IL-2 were expressed using the same vector and in the same culturing conditions as their Ser-125 counterparts and purified using MabSelectSure. The expression level in mg/L and purity assessed by SEC chromatography in aggregation % of exemplary molecules are summarized in Table 6. The two molecules in the same row of Table 6 share the same other amino acid substitution(s) and differ only at residue 125 with either serine or isoleucine. As an example, the SEC chromatogram and SDS-PAGE pictures of P-0447 (SEQ ID NO: 173) and its Ile-125 counterpart P-0511 (SEQ ID NO: 213) were further illustrated in FIGS. 1D and 1E.

[2] = tested on: STAT5 phosphorylation in NK cells; test: STAT5 phosphorylation in CD56+ NK cells, human PBMC; type: cell-based
Source text: The Stat5 phosphorylation activity on other responder cells than CD4+ T cell subsets, including CD8+T and NK, by P-0511 was compared to P-0531, the S125I equivalent of wild-type P-0250. […] IL-2 receptors expressed on CD4+ Tconv, CD8+T and NK cells are primarily dimeric IL-2Rs, comprising IL-2R6 and γc.

[3] = tested on: CD4+ Tconv cells, CD8 Teff and NK cells; test: Dose-response pharmacodynamics, CD4+ Tconv, CD8 and NK cells in mice (Example 10); type: in vivo, mouse; conditions: single s.c. dose, Balb/C mice
Procedure: Following a single subcutaneous administration of vehicle (PBS) or P-0511 (1, 0.3, 0.1, or 0.03 mg/kg) to female Balb/C mice (n=5/group), peripheral blood was collected on day −2 as baseline, and post dose on days 3, 5, and 7. On day 7, mice were sacrificed, and spleens were harvested. Blood lymphocyte phenotyping, proliferation and expansion were measured by flow cytometry at each timepoint using fresh whole blood.

[4] = tested on: KLH-induced DTH in Balb/C mice; test: KLH-induced delayed-type hypersensitivity (DTH) mouse model, ear thickness; type: in vivo; conditions: for inhibition of ear inflammation (separate study): Q5D
Procedure: The ability of Treg cells induced by IL-2 variants to suppress T cell antigen-driven inflammation in vivo was assessed in a model of delayed-type hypersensitivity (DTH). Female Balb/C mice (7-week old) were acclimated in house for 7 days and randomized into groups. Subcutaneous administration of vehicle (PBS), P-0511 at either 0.1 mg/kg or 0.3 mg/kg was initiated on day −2 and was given either once every 3 days (Q3D) for three injections or once every 5 days (Q5D) for two injections. Mice were then sensitized with a subcutaneous administration of 100 μg keyhole limpet hemocyanin (KLH) in 200 μl saline on day 0. For Q3D dosing, two more subcutaneous injections of PBS or P-0511 (0.1 or 0.3 mg/kg) were administered on days 1, and 4; for Q5D dosing, one additional s.c. injection of PBS, 0.1 or 0.3 mg/kg P-0511 was administered on day 3. Mice received an intradermal challenge of KLH (5 μg in 10 μl saline) in right ear on day 5. Right ear thickness was measured using a caliper on day 5 prior KLH challenge and daily from day 6 to day 9 corresponding to 24 h, 48 h, 72 h and 96 h post KLH challenge. One group of mice also received 5 mg/kg daily i.p. treatment of dexamethasone from day 5 to day 8 as a positive control.
Kinetics of the DTH response using the change in ear thickness relative to baseline values (Δ ear thickness) at various times after KLH challenge was illustrated in FIG. 23.

Treg cells = test: Treg proliferation and expansion in mice after a single s.c. injection of bifunctional constructs (Example 17); type: in vivo, mouse; conditions: 15 nmol/kg single s.c., C57/BL6 mice
Procedure: IL-2 variant tocilizumab bifunctional proteins P-0536, P-0546, P-0559, and P-0560 along with IL-2 variant Fc fusion protein P-0511 were administered to mice, and their ability to preferentially proliferate and expand regulatory T cells (CD4+CD25+FoxP3+ T cells) over effector T cells and NK cells were determined in vivo.
Female C57/BL6 mice (7-week old) were received from Charles River Laboratory and acclimated in house for at least 7 days before the study. Vehicle (PBS) and 15 nmol/kg each test compounds were subcutaneously administered to mice on day 0. Peripheral blood samples were collected into heparin-treated tubes on days 2, 4 and 8 post-treatment. Each group contained 5 mice and baseline blood was collected 3 days prior to the treatment (day −3).

P-0511: IL-2 L19H/S125I/Q126E Fc fusion, SEQ ID NO: 213
Aggregation % (SEC) [1]: 0.7%
STAT5 phosphorylation activity in NK cells (in words) [2]: nearly completely abolished
percentages of CD4+ Tconv, CD8 Teff and NK cells over the total lymphocytes [3]: no statistically significant changes
suppression of DTH ear swelling ([4]; 0.1 mg/kg s.c., Q3D and Q5D): did not reach statistical significance at most of the time points
inhibition of ear inflammation (separate study) ([4]; 0.1 mg/kg): mild
inhibition of ear inflammation (separate study) ([4]; 0.3 mg/kg): Intermediate
inhibition of ear inflammation (separate study) ([4]; 1 mg/kg): strong resistance to KLH-induced DTH
potency in inducing Treg cell proliferation and expansion in vivo (in words) (Treg cells): comparable in vivo Treg stimulation efficacy as P-0560
